Assay results from ChEMBL document CHEMBL1201862, “PubChem BioAssay data set” (2004).
The source made the active and inactive calls.

What was measured:
SUMO-activating enzyme [1] = target: T1, SUMO-activating enzyme (Homo sapiens, UniProt Q9UBT2); assay: blockers of SAE1/SAE2–UBC9 SUMO transfer – biochemical, HTRF, uHTS, primary screen (AID 2006); type: protein-complex assay
SUMO-activating enzyme [2] = target: T1, SUMO-activating enzyme; assay: blockers of UBC9-mediated SUMO conjugation – biochemical, AlphaScreen, SUMOylation inhibitor project, confirmation (AID 2018); type: functional
[3] = target: Induced myeloid leukemia cell differentiation protein Mcl-1 (Homo sapiens, UniProt Q07820); assay: blockers of MCL1 binding to BIM peptide – biochemical, fluorescence polarization, BIM-BH3 peptide, 1536-well, dose response (AID 2217)
Bcl-2-like protein 1 = Bcl-2-like protein 1 (Homo sapiens, UniProt Q07817); assay: blockers of BCLXL peptide binding – biochemical, fluorescence polarization, 1536-well, selectivity assay for MCL1 inhibitor project, dose response (AID 2218)
[4] = target: T2, Neuropeptide Y receptor type 1 (Homo sapiens, UniProt P25929); type: functional;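 also: HEK293 cells with a CNG channel challenged with NPY then isoproterenol; potency as antagonist that reverses NPY suppression of cAMP signal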
T2 sequence (P25929 whole entry): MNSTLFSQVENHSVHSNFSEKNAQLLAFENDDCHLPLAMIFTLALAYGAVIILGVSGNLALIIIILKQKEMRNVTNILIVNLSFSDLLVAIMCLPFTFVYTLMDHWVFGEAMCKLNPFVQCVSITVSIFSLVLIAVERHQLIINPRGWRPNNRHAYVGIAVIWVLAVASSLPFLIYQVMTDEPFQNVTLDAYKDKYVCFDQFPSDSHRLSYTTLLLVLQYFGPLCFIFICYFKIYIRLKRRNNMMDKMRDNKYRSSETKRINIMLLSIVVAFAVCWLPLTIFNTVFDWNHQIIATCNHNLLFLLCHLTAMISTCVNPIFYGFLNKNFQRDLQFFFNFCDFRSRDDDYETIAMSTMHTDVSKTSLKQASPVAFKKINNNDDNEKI

[5] = target: T3, Neuropeptide Y receptor type 2 (Homo sapiens, UniProt P49146); type: functional, cell-based;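 also: HEK293 cells expressing the receptor and a CNG channel; stimulus was NPY near EC95 followed by isoproterenol to raise cAMP; antagonist potency measured as restoring cAMP signal that NPY suppresses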
T3 sequence (P49146 whole entry): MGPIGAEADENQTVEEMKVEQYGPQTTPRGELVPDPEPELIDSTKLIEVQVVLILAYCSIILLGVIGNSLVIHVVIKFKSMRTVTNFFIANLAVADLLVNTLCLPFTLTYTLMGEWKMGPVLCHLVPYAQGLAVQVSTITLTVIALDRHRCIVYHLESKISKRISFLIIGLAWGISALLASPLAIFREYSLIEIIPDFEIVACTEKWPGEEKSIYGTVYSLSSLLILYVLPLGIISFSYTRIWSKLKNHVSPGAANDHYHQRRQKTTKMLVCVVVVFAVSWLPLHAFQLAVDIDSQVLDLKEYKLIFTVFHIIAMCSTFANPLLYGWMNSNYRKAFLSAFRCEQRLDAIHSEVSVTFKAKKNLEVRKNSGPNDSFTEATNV

[6] = Luminescence Cell-Based Dose Response HTS to Identify Activators of Luciferase Translation or Activity in H4 […] Cells. [Related pubchem assays: 1829 (Project Summary), 1814 (Primary HTS)]; type: functional
[7] = Luminescence Cell-Based Dose Confirmation to Identify Activators of 5'UTR Stem-Loop Driven Alpha-Synuclein mRNA Translation in H4 Neuroglioblastoma Cells. [Related pubchem assays: 1829 (Project Summary), 1814 (Primary HTS)]; type: functional
H4 = assay: Luminescence Cell-Based Dose Response HTS to Identify Activators of 5'UTR Stem-Loop Driven Prion Protein mRNA Translation in H4 Neuroglioblastoma Cells. [Related pubchem assays: 1829 (Project Summary), 1814 (Primary HTS)]; type: functional; details: Homo sapiens
[8] = Luminescence Cell-Based Dose Response to Identify Activators of 5'UTR Stem-Loop Driven Prion Protein mRNA Translation in H4-C Neuroglioblastoma Cells. [Related pubchem assays: 1829 (Project Summary), 1814 (Primary HTS)]; type: functional
[9] = Luminescence Cell-Based Dose Response to Identify Activators of Luciferase Translation or Activity in H4-C Neuroglioblastoma Cells. [Related pubchem assays: 1829 (Project Summary), 1814 (Primary HTS)]; type: functional
[10] = target: T4, Neuropeptides B/W receptor type 1 (Homo sapiens, UniProt P48145); assay: Fluorescence-based dose response cell-based high throughput screening assay to identify antagonists of the G-protein coupled receptor 7 (GPR7). [Related pubchem assays: 1952 (Screening assay (GPR7 antagonists).), 1880 (Summary AID.)]; type: functional
T4 sequence (P48145 whole entry): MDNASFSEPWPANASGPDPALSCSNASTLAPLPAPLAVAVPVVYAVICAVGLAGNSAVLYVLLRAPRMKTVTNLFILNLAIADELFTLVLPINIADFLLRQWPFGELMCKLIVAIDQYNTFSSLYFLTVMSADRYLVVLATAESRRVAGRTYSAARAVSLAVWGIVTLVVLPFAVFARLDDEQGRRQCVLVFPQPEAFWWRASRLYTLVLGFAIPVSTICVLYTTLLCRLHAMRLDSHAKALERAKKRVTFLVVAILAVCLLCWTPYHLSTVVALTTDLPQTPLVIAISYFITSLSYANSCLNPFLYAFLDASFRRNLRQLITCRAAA

[11] = target: Melanin-concentrating hormone receptor 1 (Homo sapiens, UniProt Q99705); assay: Fluorescence-based counterscreen for antagonists of the G-protein coupled receptor 7 (GPR7): cell-based high throughput dose response assay to identify antagonists of the melanin-concentrating hormone receptor 1 (MCHR1).; type: functional
[12] = A cytotoxicity screen of small molecule inhibitors of the PhoP region in Salmonella typhi identified in the primary screen. [Related pubchem assays: 1850, 1864, 1985 ]; type: functional
INS1 = assay: INS-1E survival protection against cytokine death – cell-based, luminescence, retest, dose response (AID 449756); type: functional; details: Rattus norvegicus;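 also: cell death triggered by IL-1 beta plus TNF-alpha plus IFN-gamma mixture; protective hits raise ATP signal compared with cytokine alone wells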
[13] = NIH3T3 cell viability loss – ATP luminescence, mouse fibroblasts, counter-screen, dose response (AID 2010); type: functional, cell-based;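 also: cells exposed to compound for about 90 hours before reading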
[14] = Luminescence-based counterscreen assay for KLF5 inhibitors: dose response cell-based high throughput screening assay to identify cytotoxic compounds using the IEC-6 intestinal epithelial cell line. [Related pubchem assays: 1700 (Primary screen.), 1834 (Confirmation screen.), 1858 (Summary AID.), 1905 (Counterscreen.)]; type: functional
Paired box protein Pax-8 = Paired box protein Pax-8 (Homo sapiens, UniProt Q06710); assay: PAX8 transcriptional activity inhibition in RMG-I – RMG-I cells, luciferase, cherry-pick, dose response (AID 687027); type: functional, cell-based;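 also: luciferase reporter driven by Pax8 target thyroperoxidase promoter measured by SteadyGlo luminescence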
[15] = NIH-3T3 fibroblast cytotoxicity, dose response, cytotoxicity control, cell-based, fluorescence, Alamar Blue, secondary assay (AID 2327); type: functional;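 also: NIH-3T3 mouse fibroblasts cultured with fluconazole at 8 µg/mL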
[16] = target: T5, Heat shock factor protein 1 (Mus musculus, UniProt P38532); assay: decrease of HSF1-responsive luciferase luminescence – cell-based, NIH3T3, dose retest, confirmation (AID 2382); type: functional;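 also: NIH3T3 fibroblasts with HSF1-driven luciferase reporter stressed by proteasome inhibitor MG132; luminescence from HSF1-driven luciferase expression after 8 hours of MG132 stress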
T5 sequence (P38532 whole entry): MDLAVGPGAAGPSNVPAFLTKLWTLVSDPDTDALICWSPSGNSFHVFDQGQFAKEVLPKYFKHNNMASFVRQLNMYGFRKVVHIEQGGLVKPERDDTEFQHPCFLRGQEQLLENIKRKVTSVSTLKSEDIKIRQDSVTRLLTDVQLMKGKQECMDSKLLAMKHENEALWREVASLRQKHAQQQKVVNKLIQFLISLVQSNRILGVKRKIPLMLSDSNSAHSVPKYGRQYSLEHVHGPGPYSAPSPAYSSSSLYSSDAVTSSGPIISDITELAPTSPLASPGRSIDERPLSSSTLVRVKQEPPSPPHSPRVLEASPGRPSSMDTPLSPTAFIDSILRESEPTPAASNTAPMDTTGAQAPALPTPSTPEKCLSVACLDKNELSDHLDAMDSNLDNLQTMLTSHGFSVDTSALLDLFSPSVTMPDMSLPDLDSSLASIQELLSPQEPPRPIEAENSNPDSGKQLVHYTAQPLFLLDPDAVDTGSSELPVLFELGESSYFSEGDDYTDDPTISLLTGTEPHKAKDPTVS

cells [17] = type: functional, cell-based
cells [18] = type: functional, cell-based; remark: listed apart in the source
Nonstructural protein 1 = Nonstructural protein 1 (Influenza A virus, UniProt Q194T2); type: functional, Influenza A virus (A/California/07/2009(H1N1))
[19] = Trypanosoma cruzi growth suppression in host cells – NIH3T3 host cells, beta-gal luminescence, confirmation (AID 2044); type: functional, cell-based;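 also: intracellular parasites grown in NIH/3T3 mouse fibroblasts as host cells; luminescent beta-galactosidase reporter signal from transgenic T. cruzi replicating inside host cells; inhibitors lower the luminescence signal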
[20] = fluconazole-exposed Candida albicans growth modulators – fluorescence, retest, confirmation (AID 2467); type: functional, cell-based
[21] = blockers of HIV-1 ZM109 envelope-driven cell-cell fusion – HeLa effector, CEM target cells, luciferase, cherry-pick, dose response (AID 652058); type: functional, cell-based;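 also: luciferase signal from HIV-1 Env mediated cell-cell fusion of effector and target cells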
[22] = blockers of HIV-1 envelope-mediated cell-cell fusion – cherry-pick, dose response (AID 652057); type: functional, cell-based
[23] = viability loss in CEM21 cells – cell-based, CellTiter-Glo luminescence, cherry-picked, cytotoxicity control for viral fusion inhibitor project, dose response (AID 652042); type: functional;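 also: potency for signal decrease meaning cytotoxicity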
fMet-Leu-Phe receptor = fMet-Leu-Phe receptor (Homo sapiens, UniProt P21462); assay: formyl peptide receptor binders – dose response (AID 519); type: functional
[24] = HIV-1 AD8 envelope cell-cell fusion blockers – cherry-pick, dose response (AID 652062); type: functional, cell-based;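 also: luciferase signal from cell-cell fusion driven by HIV-1 clade B AD8 Env; potency is for inhibitors of fusion seen as a drop in luminescence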
[25] = off-target signal loss in HeLa-CEM21 co-culture – HeLa F-luc CTL cells, cherry-picked, counter-screen for HIV-1 Env fusion inhibitor project, dose response (AID 652040); type: functional, cell-based;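 also: potency for signal decrease marking cytotoxic or nonspecific inhibition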
Estrogen receptor beta [26] = target: T6, Estrogen receptor beta (Homo sapiens, UniProt Q92731);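 also: recombinant ER-beta bound to coactivator SRC1 peptide in presence of estradiol agonist; inhibitors block coactivator peptide binding and lower the FRET signal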
Estrogen receptor beta [27] = target: T6, Estrogen receptor beta; assay: blockers of SRC-3 recruitment to ERβ – biochemical, ELISA, streptavidin-HRP readout, orthogonal assay, confirmation (AID 1060)

T1 sequence (Q9UBE0 whole entry): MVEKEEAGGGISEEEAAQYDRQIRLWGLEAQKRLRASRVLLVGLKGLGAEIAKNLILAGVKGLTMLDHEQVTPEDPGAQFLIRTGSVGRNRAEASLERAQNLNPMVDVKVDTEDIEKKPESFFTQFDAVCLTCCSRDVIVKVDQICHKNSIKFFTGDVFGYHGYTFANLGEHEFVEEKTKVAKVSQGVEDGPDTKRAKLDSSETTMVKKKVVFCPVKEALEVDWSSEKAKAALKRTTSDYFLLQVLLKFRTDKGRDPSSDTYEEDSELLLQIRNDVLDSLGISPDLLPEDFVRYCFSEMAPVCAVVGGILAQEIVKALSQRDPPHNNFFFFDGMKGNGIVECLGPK
T1 sequence (Q9UBT2 whole entry): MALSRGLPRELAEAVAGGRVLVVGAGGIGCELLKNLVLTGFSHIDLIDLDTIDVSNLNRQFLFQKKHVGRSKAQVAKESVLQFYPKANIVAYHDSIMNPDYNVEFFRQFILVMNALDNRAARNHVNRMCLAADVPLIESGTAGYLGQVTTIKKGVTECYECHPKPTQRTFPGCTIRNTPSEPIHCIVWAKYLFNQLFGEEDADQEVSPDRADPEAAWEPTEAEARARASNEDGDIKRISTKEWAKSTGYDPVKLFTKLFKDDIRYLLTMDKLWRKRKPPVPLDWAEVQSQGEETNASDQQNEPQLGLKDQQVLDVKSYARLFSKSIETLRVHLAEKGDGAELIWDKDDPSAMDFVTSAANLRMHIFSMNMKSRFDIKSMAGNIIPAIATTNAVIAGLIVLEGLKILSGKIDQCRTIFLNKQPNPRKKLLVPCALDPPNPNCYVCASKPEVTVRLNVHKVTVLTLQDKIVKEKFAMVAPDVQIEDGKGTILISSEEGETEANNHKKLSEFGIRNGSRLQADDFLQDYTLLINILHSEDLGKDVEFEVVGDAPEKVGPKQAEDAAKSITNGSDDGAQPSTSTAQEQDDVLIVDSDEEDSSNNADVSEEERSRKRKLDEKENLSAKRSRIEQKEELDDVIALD
Sequence of Induced myeloid leukemia cell differentiation protein Mcl-1 (Q07820 whole entry): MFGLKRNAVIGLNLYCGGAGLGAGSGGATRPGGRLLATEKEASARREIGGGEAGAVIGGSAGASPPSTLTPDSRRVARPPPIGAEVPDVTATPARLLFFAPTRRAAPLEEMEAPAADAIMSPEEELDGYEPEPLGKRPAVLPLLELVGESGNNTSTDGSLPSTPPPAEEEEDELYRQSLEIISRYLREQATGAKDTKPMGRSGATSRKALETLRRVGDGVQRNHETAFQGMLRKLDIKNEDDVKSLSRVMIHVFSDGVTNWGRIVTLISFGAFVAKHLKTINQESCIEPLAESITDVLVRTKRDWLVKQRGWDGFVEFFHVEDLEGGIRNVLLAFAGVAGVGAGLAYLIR
T6 sequence (Q92731 whole entry): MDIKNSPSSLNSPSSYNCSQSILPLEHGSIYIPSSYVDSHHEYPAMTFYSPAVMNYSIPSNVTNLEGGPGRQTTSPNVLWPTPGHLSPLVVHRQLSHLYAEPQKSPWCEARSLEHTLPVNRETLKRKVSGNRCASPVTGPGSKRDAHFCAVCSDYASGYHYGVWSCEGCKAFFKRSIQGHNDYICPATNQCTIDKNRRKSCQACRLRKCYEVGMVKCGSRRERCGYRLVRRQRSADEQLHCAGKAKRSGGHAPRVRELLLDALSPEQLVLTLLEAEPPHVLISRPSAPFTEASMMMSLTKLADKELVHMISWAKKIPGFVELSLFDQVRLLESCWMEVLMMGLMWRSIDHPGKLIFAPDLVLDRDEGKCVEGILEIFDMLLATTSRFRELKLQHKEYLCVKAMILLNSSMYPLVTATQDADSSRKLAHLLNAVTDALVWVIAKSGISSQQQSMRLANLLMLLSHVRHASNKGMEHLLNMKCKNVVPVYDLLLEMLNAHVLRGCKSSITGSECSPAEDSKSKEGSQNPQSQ
Sequence of Melanin-concentrating hormone receptor 1 (Q99705 whole entry): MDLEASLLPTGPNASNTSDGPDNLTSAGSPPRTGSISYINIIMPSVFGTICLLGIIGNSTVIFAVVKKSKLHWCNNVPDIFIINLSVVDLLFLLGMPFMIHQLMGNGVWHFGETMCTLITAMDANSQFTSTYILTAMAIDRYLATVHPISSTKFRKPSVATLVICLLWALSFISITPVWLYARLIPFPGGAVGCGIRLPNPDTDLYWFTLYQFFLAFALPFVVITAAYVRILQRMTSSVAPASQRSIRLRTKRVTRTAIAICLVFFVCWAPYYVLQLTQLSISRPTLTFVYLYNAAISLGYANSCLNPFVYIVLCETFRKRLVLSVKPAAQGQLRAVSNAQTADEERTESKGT
Sequence of Bcl-2-like protein 1 (Q07817 whole entry): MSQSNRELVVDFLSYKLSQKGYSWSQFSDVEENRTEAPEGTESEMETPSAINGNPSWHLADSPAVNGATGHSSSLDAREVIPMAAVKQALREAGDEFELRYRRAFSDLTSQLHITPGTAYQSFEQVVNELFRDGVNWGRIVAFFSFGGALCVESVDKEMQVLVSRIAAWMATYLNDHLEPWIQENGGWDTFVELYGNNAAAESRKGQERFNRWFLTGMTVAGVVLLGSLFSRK
Sequence of Nonstructural protein 1 (Q194T2 whole entry): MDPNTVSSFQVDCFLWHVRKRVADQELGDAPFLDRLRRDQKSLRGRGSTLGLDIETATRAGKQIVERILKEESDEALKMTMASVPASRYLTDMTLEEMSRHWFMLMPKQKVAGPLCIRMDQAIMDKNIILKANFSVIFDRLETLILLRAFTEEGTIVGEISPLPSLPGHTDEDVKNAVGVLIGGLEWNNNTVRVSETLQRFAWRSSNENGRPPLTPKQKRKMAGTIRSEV
Sequence of fMet-Leu-Phe receptor (P21462 whole entry, the tested form may be a part): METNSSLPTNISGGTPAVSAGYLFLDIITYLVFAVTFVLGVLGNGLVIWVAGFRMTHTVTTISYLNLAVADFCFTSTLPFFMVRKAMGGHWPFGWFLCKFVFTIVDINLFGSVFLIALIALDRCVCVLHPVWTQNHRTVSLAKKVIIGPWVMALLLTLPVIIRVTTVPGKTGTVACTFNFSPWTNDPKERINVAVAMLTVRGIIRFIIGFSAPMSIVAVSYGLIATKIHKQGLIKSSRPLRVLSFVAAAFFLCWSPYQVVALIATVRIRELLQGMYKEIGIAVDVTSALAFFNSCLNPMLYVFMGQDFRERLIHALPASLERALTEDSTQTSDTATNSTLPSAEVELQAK
Sequence of Paired box protein Pax-8 (Q06710 whole entry): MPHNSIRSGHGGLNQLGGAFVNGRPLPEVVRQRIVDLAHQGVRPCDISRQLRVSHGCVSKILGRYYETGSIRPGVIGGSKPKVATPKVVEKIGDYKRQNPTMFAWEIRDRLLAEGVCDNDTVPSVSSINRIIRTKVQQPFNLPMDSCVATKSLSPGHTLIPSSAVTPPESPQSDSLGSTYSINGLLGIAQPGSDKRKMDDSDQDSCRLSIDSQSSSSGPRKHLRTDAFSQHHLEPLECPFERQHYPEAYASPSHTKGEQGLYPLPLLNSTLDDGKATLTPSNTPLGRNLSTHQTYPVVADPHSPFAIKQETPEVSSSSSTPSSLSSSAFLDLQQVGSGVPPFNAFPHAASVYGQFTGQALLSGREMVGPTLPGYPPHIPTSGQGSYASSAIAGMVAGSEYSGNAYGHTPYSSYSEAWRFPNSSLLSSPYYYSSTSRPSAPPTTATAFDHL

Structure (SMILES): O=C1NC(=O)N(Cc2ccco2)C(=O)/C1=C/c1ccc(-c2cccc([N+](=O)[O-])c2)o1
- IC50 (SUMO-activating enzyme [1]): 22.4 µM (active)
- IC50 (SUMO-activating enzyme [2]): 6.08 µM (active)
- IC50 [3]: 9.6 µM (active)
- IC50 (Bcl-2-like protein 1): 17.6 µM (not active)

Structure (SMILES): Clc1ccc(OCCSc2nnnn2C2CCCCC2)cc1
- IC50 [4]: 9.04 µM (active)
- IC50 [5]: 14.2 µM (not active)

Structure (SMILES): COc1cccc(-c2nc(O)c3c4c(sc3n2)CCCCC4)c1
- EC50 [6]: < 100 nM (active)
- EC50 [7]: 0.303 µM (active)
- EC50 (H4): 11.6 µM (active)
- EC50 [8]: 370 nM (active)
- EC50 [9]: 1.36 µM (active)

Structure (SMILES): N#Cc1ccc(-c2cccnc2)nc1SCc1ccc(Cl)c(Cl)c1
- IC50 [4]: 5.69 µM (active)
- IC50 [5]: 5.19 µM (active)

Structure (SMILES): Cc1ccc(NC(Cc2cc(C)no2)c2ccccc2)cc1 (centres undefined)
- IC50 [10]: 9.47 µM (active)
- IC50 [11]: 19.8 µM (not active)

Structure (SMILES): Cc1cc2cc(CNC(=O)C(C)Oc3ccccc3)ccc2n1C (centres undefined)
- EC50 [12]: > 50 µM (active)

Structure (SMILES): CCNC(=O)c1ccc(C2SCC(=O)N2CCc2ccccc2)cc1 (centres undefined)
- EC50 [12]: > 50 µM (active)

Structure (SMILES): COc1ccccc1N1CCN(Cc2cc(Br)c(O)c3ncccc23)CC1
- AC50 (INS1): 3.95 µM (active)
- EC50 [13]: 6.15 µM (active)
- IC50 [14]: 6.32 µM (active)
- AC50 (Paired box protein Pax-8): 1.82 µM (active)
- EC50 [15]: 19.4 µM (inconclusive)
- EC50 [16]: 482 nM (active)
- EC50 (cells [17]): > 350 µM (not active)
- EC50 (cells [18]): 8.13 µM (active)
- IC50 (Nonstructural protein 1): 15.4 µM (active)
- EC50 [19]: 1.34 µM (active)
- EC50 [20]: 2.22 µM (active)

Structure (SMILES): Clc1ccc(C2CC(c3cccs3)n3ncnc3N2)cc1Cl (centres undefined)
- IC50 [10]: > 4.87 µM (active)
- AC50 [21]: 7.81 µM (active)
- IC50 [11]: 16 µM (not active)
- AC50 [22]: 7.3 µM (active)
- AC50 [23]: 56.8 µM (active)
- Ki (fMet-Leu-Phe receptor): > 66.7 µM (inactive)
- AC50 [24]: 6.95 µM (active)
- AC50 [25]: 7.08 µM (active)

Structure (SMILES): CCOC(=O)C1=C(C)NC(=O)NC1c1ccco1 (centres undefined)
- IC50 (Estrogen receptor beta [26]): 9.28 µM (active)
- IC50 (Estrogen receptor beta [27]): < 23 nM (not active)

Structure (SMILES): O=C(CNc1cccc2ccccc12)N/N=C/c1ccc(C(=O)O)cc1
- IC50 [3]: 26.6 µM (not active)
- IC50 (Bcl-2-like protein 1): > 109 µM (not active)

Structure (SMILES): Cc1ccc(-c2c(C)s/c(=N\C(=O)c3ccco3)n2C)cc1
- EC50 [6]: < 100 nM (active)
- EC50 [7]: > 12 µM (not active)
- EC50 [8]: 469 nM (active)
- EC50 [9]: 0.354 µM (active)
